The target in one assay is T1, ExtHD (Gallus gallus, UniProt Q05917).
T1 construct: gene EN2; homeodomain plus 17-residue basic N-terminal extension (183-259); E. coli SE1, His6-Cherry fusion removed by PreScission, GPAS left at N-terminus (GPCAS with biotin-PEG2-maleimide for biotinylated form)
T1 sequence (Q05917 183-259): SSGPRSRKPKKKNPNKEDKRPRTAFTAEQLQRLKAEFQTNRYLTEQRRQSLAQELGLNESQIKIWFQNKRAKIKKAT
Description: ITC, titration with POPG LUVs. It is filed as binding. Conditions: read-out: Kd^apparent. From the text: ITC, titration with POPG LUVs on ExtHD

The next assay deals with T2, HD (Gallus gallus, UniProt Q05917).
T2 construct: gene EN2; homeodomain alone (200-259); E. coli SE1, His6-Cherry fusion removed by PreScission, GPAS left at N-terminus
T2 sequence (Q05917 200-259): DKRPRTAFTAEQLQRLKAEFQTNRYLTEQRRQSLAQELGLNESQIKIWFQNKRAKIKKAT
In words: ITC, titration with POPG LUVs. It is filed as binding. Conditions: read-out: Kd^apparent. An excerpt:
ITC, titration with POPG LUVs on HD

As to `CCCCCCCC/C=C\CCCCCCCC(=O)O[C@H](COC(=O)CCCCCCCCCCCCCCC)COP(=O)(O)OCC(O)CO` (mixture of isomers) [POPG, 1-palmitoyl-2-oleoyl-sn-glycero-3-phospho-(1’-rac-glycerol)], the Kd at ExtHD worked out at 6.8 ± 2.3 µM; at HD, 7.5 ± 2.5 µM.
